We go through twelve compounds from US7880007B2, “Bicyclic substituted phenyl piperidine modulators of muscarinic receptors” (Vertex Pharmaceuticals Incorporated, priority 2004, dated 2011).

Common to all, as to assay type: cell-based
In one assay the target is T1, M1 muscarinic receptor (Homo sapiens, UniProt P11229).
T1 construct: expressed in transfected cells; host or cells: CHO (M1-CHO)
T1 sequence (P11229 1-460): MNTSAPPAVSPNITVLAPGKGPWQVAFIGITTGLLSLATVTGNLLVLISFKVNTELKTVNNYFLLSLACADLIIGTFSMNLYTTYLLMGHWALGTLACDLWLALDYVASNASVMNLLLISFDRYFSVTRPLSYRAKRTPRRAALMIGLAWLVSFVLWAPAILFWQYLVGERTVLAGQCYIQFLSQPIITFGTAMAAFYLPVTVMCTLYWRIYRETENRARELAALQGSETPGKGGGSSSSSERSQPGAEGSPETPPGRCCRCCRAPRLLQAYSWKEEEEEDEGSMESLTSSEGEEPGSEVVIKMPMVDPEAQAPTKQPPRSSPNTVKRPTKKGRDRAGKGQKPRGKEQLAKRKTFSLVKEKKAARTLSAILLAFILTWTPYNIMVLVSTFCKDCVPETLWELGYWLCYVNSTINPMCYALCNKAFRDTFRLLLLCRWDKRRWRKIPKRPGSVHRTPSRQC
The assay can be described thus: Functional mobilization of intracellular calcium (FLIPR), M1-CHO cells. The conditions noted are these: for Emax: 100% efficacy = maximum response obtained with the Carbachol control; for M1 Activity: M1-CHO cells, calcium mobilization (FLIPR). In short, it runs like this:
(§1)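 Calcium mobilisation read by FLIPR over 60 s (ex 488/em 540 nm) in recombinant muscarinic CHO lines loaded with calcium dye plus 1 mM probenecid. Compounds tested as agonists alone, or as inhibitors against EC80 carbachol after 15 min pre-incubation or co-addition; 0.5% DMSO; efficacy scaled to carbachol maximal response.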
In general terms: Calcium assays in cells follow changes in intracellular calcium, usually with a dye or a luminescent sensor.

Another assay addresses T2, M2 muscarinic receptor (Homo sapiens, UniProt P08172).
T2 construct: expressed in transfected cells; host or cells: CHO (M2-CHO)
T2 sequence (P08172 1-466): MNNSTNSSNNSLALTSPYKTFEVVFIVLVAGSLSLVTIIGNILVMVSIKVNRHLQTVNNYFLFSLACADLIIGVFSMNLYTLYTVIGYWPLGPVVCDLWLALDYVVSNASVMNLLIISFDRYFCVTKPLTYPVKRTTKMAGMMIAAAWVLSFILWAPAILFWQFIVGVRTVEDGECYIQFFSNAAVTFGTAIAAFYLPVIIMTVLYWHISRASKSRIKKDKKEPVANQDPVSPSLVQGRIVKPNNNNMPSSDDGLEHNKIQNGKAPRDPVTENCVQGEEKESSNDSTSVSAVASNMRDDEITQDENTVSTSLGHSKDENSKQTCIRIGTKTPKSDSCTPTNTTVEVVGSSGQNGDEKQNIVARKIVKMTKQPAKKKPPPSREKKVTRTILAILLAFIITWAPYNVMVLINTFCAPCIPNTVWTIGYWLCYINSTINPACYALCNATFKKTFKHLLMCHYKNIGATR
The assay can be described thus: Functional mobilization of intracellular calcium (FLIPR), M2-CHO cells. The conditions noted are these: for Emax: 100% efficacy = maximum response obtained with the Carbachol control; for M2 Activity: M2-CHO cells, calcium mobilization (FLIPR). In short, it runs like this: as §1

For a further assay, the target named is T3, M3 muscarinic receptor (Homo sapiens, UniProt P20309).
T3 construct: expressed in transfected cells; host or cells: CHO (M3-CHO)
T3 sequence (P20309 whole entry): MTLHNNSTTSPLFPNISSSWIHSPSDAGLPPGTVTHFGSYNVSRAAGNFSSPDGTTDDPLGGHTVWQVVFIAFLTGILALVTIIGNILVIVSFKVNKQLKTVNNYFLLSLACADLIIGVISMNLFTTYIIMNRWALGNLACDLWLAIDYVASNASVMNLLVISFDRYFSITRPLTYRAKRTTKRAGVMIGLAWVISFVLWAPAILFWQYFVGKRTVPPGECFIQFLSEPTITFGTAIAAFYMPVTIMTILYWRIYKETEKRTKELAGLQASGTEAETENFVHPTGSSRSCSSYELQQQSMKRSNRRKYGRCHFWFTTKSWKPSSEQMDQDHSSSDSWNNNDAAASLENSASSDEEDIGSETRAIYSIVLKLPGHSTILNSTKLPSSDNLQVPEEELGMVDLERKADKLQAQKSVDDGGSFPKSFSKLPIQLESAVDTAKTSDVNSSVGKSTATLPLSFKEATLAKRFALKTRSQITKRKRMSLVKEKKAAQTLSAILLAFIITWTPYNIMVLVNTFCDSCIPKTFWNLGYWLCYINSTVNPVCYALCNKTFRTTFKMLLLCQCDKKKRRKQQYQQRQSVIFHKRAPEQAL
Briefly: Functional mobilization of intracellular calcium (FLIPR), M3-CHO cells. The conditions noted are these: for Emax: 100% efficacy = maximum response obtained with the Carbachol control; for M3 Activity: M3-CHO cells, calcium mobilization (FLIPR). The essentials:
as §1

The target of the next assay is T4, M4 muscarinic receptor (Homo sapiens, UniProt P08173).
T4 construct: expressed in transfected cells; host or cells: CHO (M4-CHO)
T4 sequence (P08173 1-479): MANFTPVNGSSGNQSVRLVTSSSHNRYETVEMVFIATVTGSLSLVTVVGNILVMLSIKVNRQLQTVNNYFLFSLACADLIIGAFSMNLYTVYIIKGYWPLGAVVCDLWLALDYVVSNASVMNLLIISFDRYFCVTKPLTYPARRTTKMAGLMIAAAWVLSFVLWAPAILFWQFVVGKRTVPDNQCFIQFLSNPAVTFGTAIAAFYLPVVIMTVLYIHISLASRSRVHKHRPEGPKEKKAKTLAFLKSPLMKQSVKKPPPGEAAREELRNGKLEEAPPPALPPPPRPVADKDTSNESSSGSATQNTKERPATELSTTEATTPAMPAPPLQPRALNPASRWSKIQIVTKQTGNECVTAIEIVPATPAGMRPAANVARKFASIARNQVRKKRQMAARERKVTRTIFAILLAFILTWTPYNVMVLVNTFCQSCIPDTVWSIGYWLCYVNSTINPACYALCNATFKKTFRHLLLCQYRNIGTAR
Briefly: Functional mobilization of intracellular calcium (FLIPR), M4-CHO cells. The conditions noted are these: for Emax: 100% efficacy = maximum response obtained with the Carbachol control; for M4 Activity: M4-CHO cells, calcium mobilization (FLIPR). In short, it runs like this: as §1

Broadly, the Emax is the greatest response seen or fitted, relative to the assay's reference. In the case of `COc1ccc(-c2ccccc2)cc1C1CCN([C@H]2C[C@H]3CC[C@H]2C3)CC1` [Compound 168], on M1 muscarinic receptor, the Emax is below 25% and the “M1 Activity” value is “+ (activity was measured to be greater than 5.0 μM)”. On M2 muscarinic receptor, the Emax is below 25% and the “M2 Activity” value is reported as “+ (activity was measured to be greater than 5.0 μM)”. Also, on M3 muscarinic receptor, the Emax is below 25% and the “M3 Activity” value was “+ (activity was measured to be greater than 5.0 μM)”. At M4 muscarinic receptor, the Emax was 25 to 100% and the “M4 Activity” value is reported as “+ (activity was measured to be greater than 5.0 μM)”.

For `COc1ccccc1C1CCN(C2CC3CCC(C3)C2)CC1` (centres unmarked) [Compound 169], on M1 muscarinic receptor, the Emax was 25 to 100% and the “M1 Activity” value is on record as “++ (activity was measured to be from 1.0 μM to 5.0 μM)”. On M2 muscarinic receptor, the Emax is below 25% and the “M2 Activity” value was “+ (activity was measured to be greater than 5.0 μM)”. In addition, on M3 muscarinic receptor, the Emax was below 25% and the “M3 Activity” value is on record as “+ (activity was measured to be greater than 5.0 μM)”. In addition, on M4 muscarinic receptor, the Emax lay in the range of 25 to 100% and the “M4 Activity” value was “+++ (activity was measured to be less than 1.0 μM)”.

In the case of `O=C(COc1ccccc1C1CCN([C@H]2C[C@H]3CC[C@H]2C3)CC1)c1ccccc1Cl` [Compound 170], on M1 muscarinic receptor, the Emax is below 25% and the “M1 Activity” value is on record as “+ (activity was measured to be greater than 5.0 μM)”. For the same compound, on M2 muscarinic receptor, the Emax was below 25% and the “M2 Activity” value is “+ (activity was measured to be greater than 5.0 μM)”. Moreover, on M3 muscarinic receptor, the Emax was below 25% and the “M3 Activity” value is “+ (activity was measured to be greater than 5.0 μM)”. Besides, on M4 muscarinic receptor, the Emax was 25 to 100% and the “M4 Activity” value was “+++ (activity was measured to be less than 1.0 μM)”.

Take `Cc1ccccc1C1(O)CCN(CC2CC3C=CC2C3)CC1` (centres unmarked) [Compound 171]: at M1 muscarinic receptor, the Emax lay within 25 to 100% and the “M1 Activity” value is on record as “++ (activity was measured to be from 1.0 μM to 5.0 μM)”. On M2 muscarinic receptor, the Emax is below 25% and the “M2 Activity” value is “+ (activity was measured to be greater than 5.0 μM)”. Besides, at M3 muscarinic receptor, the “M3 Activity” value is reported as “+ (activity was measured to be greater than 5.0 μM)”. At M4 muscarinic receptor, the Emax was in the range of 25 to 100% and the “M4 Activity” value is reported as “+++ (activity was measured to be less than 1.0 μM)”.

`COc1ccc(-c2ccc(CC#N)cc2)cc1C1CCN(C2CC3CCC(C3)C2)CC1` (centres unmarked) [Compound 173]: at M1 muscarinic receptor, the Emax is below 25% and the “M1 Activity” value was “+ (activity was measured to be greater than 5.0 μM)”. For the same compound, on M2 muscarinic receptor, the Emax is below 25% and the “M2 Activity” value was “+ (activity was measured to be greater than 5.0 μM)”. Besides, on M3 muscarinic receptor, the Emax is below 25% and the “M3 Activity” value is recorded as “+ (activity was measured to be greater than 5.0 μM)”. At M4 muscarinic receptor, the Emax fell in the range of 25 to 100% and the “M4 Activity” value is “+ (activity was measured to be greater than 5.0 μM)”.

For the compound `COc1ccc(Cl)c(C2CCN(C3C[C@H]4CC[C@H]3C4)CC2)c1` (some centres unmarked) [Compound 174], at M1 muscarinic receptor, the Emax is below 25% and the “M1 Activity” value is reported as “+ (activity was measured to be greater than 5.0 μM)”. Besides, on M2 muscarinic receptor, the Emax was below 25% and the “M2 Activity” value is reported as “+ (activity was measured to be greater than 5.0 μM)”. For the same compound, on M3 muscarinic receptor, the Emax is below 25% and the “M3 Activity” value was “+ (activity was measured to be greater than 5.0 μM)”. Further, at M4 muscarinic receptor, the Emax was below 25% and the “M4 Activity” value is recorded as “+ (activity was measured to be greater than 5.0 μM)”.

For the compound `COc1ccccc1C1CCN(C2CCC(C3CCCCC3)CC2)CC1` (centres unmarked) [Compound 175], at M1 muscarinic receptor, the Emax was below 25% and the “M1 Activity” value is listed as “+ (activity was measured to be greater than 5.0 μM)”. In addition, at M2 muscarinic receptor, the Emax is below 25% and the “M2 Activity” value is “+ (activity was measured to be greater than 5.0 μM)”. Also, at M3 muscarinic receptor, the Emax was below 25% and the “M3 Activity” value is “+ (activity was measured to be greater than 5.0 μM)”. In addition, on M4 muscarinic receptor, the Emax was below 25% and the “M4 Activity” value is listed as “+ (activity was measured to be greater than 5.0 μM)”.

For the compound `COc1ccc(F)cc1C1CCN(C2CCCCCC2)CC1` [Compound 176], on M1 muscarinic receptor, the maximum response (Emax) is 25 to 100% and the “M1 Activity” value was “+++ (activity was measured to be less than 1.0 μM)”. Further, on M2 muscarinic receptor, the Emax lay within 25 to 100% and the “M2 Activity” value was “++ (activity was measured to be from 1.0 μM to 5.0 μM)”. In addition, on M3 muscarinic receptor, the Emax was below 25% and the “M3 Activity” value is “+ (activity was measured to be greater than 5.0 μM)”. Besides, on M4 muscarinic receptor, the Emax fell in the range of 25 to 100% and the “M4 Activity” value is listed as “+++ (activity was measured to be less than 1.0 μM)”.

Consider `CCOC(=O)N1CCC(CN2CCC(c3cc(OC)cc(F)c3F)CC2)CC1` [Compound 177], for which, at M1 muscarinic receptor, the Emax lay in the range of 25 to 100% and the “M1 Activity” value is “+++ (activity was measured to be less than 1.0 μM)”. For the same compound, at M2 muscarinic receptor, the Emax was below 25% and the “M2 Activity” value was “+ (activity was measured to be greater than 5.0 μM)”. On M3 muscarinic receptor, the Emax is below 25% and the “M3 Activity” value is “+ (activity was measured to be greater than 5.0 μM)”. Also, at M4 muscarinic receptor, the Emax fell in the range of 25 to 100% and the “M4 Activity” value is listed as “+++ (activity was measured to be less than 1.0 μM)”.

In the case of `COc1ccc(-c2ccccc2Cl)cc1C1CCN([C@H]2C[C@H]3CC[C@H]2C3)CC1` [Compound 178], at M1 muscarinic receptor, the Emax was below 25% and the “M1 Activity” value is reported as “+ (activity was measured to be greater than 5.0 μM)”. For the same compound, at M2 muscarinic receptor, the Emax is below 25% and the “M2 Activity” value is recorded as “+ (activity was measured to be greater than 5.0 μM)”. Besides, at M3 muscarinic receptor, the Emax is below 25% and the “M3 Activity” value is given as “+ (activity was measured to be greater than 5.0 μM)”. Moreover, at M4 muscarinic receptor, the maximum response (Emax) was in the range of 25 to 100% and the “M4 Activity” value is recorded as “+ (activity was measured to be greater than 5.0 μM)”.

On to `CCOC(=O)N1C2CCC1CC(N1CCC(c3ccc(F)cc3OC)CC1)C2` (centres unmarked) [Compound 179], for which, at M1 muscarinic receptor, the Emax fell in the range of 25 to 100% and the “M1 Activity” value was “+++ (activity was measured to be less than 1.0 μM)”. On M2 muscarinic receptor, the Emax was below 25% and the “M2 Activity” value is given as “+ (activity was measured to be greater than 5.0 μM)”. For the same compound, on M3 muscarinic receptor, the Emax is below 25% and the “M3 Activity” value was “+ (activity was measured to be greater than 5.0 μM)”. At M4 muscarinic receptor, the Emax was in the range of 25 to 100% and the “M4 Activity” value was “+++ (activity was measured to be less than 1.0 μM)”.

As to `Cc1ccccc1C1CCN(C2CC3CCC2C3)CC1` (centres unmarked) [Compound 180], on M1 muscarinic receptor, the Emax is 25 to 100% and the “M1 Activity” value is “++ (activity was measured to be from 1.0 μM to 5.0 μM)”. Also, on M2 muscarinic receptor, the Emax was below 25% and the “M2 Activity” value is recorded as “+ (activity was measured to be greater than 5.0 μM)”. Further, on M3 muscarinic receptor, the Emax is below 25% and the “M3 Activity” value was “+ (activity was measured to be greater than 5.0 μM)”. Moreover, on M4 muscarinic receptor, the Emax is 25 to 100% and the “M4 Activity” value is “+++ (activity was measured to be less than 1.0 μM)”.
